In article PMC10892093 (Pharmaceutics, 2024):
Where two headings read alike, the source gives them in different places.

Legend:
[1] = cited from earlier work
[2] = tested on: human liver microsomes (HLM); assay: Inhibition of R- and S-oxazepam glucuronidation in human liver microsomes
Procedure: (§1) A Waters Corp BEH C18 Acquity UPLC column (1.7 µM, 2.1 × 100 mm) was used at a constant temperature of 40 °C for chromatographic separation. An elution gradient was used for 6.5 min with mobile phases A (5 mM ammonium formate) and B (100% methanol) under the following conditions: 90% A for 0.5 min, followed by a linear gradient for 3 min to 60% A, 1 min at 5% A, and re-equilibration for 1 min at 90% A.
(§2) The reaction was initiated by the addition of 4 mM UDPGA as the cofactor and incubated for 2 h at 37 °C. The reaction was terminated by adding 30 µL of an ice-cold stop solution (acetonitrile/methanol; 1:1). The reaction mixtures were centrifuged at 17,000× g for 30 min at 4 °C, and the supernatant was transferred to UPLC sample glass vial for analysis using UPLC–MS/MS (described above). […] As a positive control for inhibition assays, ketoconazole (10 μM and 100 µM) was used as a potential inhibitor of the UGTs 1A9, 2B7, and 2B15. Reactions containing only the cannabinoid vehicle (3% methanol) and without any inhibitor (cannabinoids) were used as a baseline reaction for 100% enzyme activity, while a reaction without UDPGA was used as a negative control. All experiments were performed in three independent experiments.
(§3) Determination of IC50 and Ki Values. […] The nonspecific binding constants (fu,inc) for cannabinoids in HEK293 microsomes, HLM, and HKM were previously determined and used to calculate the inhibition by unbound (‘free’) cannabinoid in each reaction. A nonlinear regression analysis and the following equation were used to calculate the IC50 values:(1) y = Bottom +Top − Bottom / 1 + 10^x − LogIC50A where ‘Bottom’ is the maximum observed inhibition (lowest percent activity) and ‘Top’ is the minimum observed inhibition (highest percent activity) for a given cannabinoid.
The inhibition constant (Ki) was generated from the in vitro IC50 values assuming competitive inhibition (based on the Cheng–Prusoff equation; [49]). Considering that there have been no reports of the irreversible inhibition (e.g., mechanism-based inhibition) of UGTs, competitive inhibition was assumed as the worst-case scenario (highest inhibition) among all feasible types of reversible inhibitions. The substrate concentration used in the incubations was below the reported Km; therefore, the Ki values were predicted using Equation (2):(2) Ki=IC50/S/Km+1 where Km is Michaelis–Menten constant for the substrate, S is the substrate concentration, and IC50 is half-maximal inhibitory concentration.

UGT2B7 = molecular target: T1, UGT2B7 (Homo sapiens, UniProt P16662); assay: Inhibition of R- and S-oxazepam glucuronidation in rUGT2B7 microsomes (UGT-overexpressing HEK293); assay type: biochemical; settings: for IC50: rUGT2B7; for inhibition at 2 h, 100 µM: human, pH 7.4, rUGT2B7 microsomes
T1 construct: expressed in transfected cells; microsomal fraction
T1 sequence (P16662 24-529): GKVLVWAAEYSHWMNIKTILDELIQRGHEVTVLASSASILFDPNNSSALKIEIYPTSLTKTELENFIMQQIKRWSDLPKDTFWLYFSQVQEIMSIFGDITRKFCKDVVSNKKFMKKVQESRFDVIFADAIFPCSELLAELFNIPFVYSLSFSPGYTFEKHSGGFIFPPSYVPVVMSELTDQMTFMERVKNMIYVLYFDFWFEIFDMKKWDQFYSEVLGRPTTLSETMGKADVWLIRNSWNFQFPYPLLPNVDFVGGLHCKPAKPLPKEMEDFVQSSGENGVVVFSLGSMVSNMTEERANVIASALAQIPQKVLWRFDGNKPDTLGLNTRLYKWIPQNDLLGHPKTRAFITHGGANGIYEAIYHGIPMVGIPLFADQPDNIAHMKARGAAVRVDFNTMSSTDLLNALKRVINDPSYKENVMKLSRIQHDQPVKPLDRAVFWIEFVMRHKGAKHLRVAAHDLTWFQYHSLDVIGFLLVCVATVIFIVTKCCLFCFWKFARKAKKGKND
Procedure: (§4) Human embryonic kidney cells (HEK293) stably overexpressing the single UGTs 1A9, 2B7, and 2B15 have been previously established and described. Cells were grown in DMEM supplemented with 350 μg/mL of geneticin and 10% FBS and harvested in PBS. Microsomal fractions of UGT-overexpressing cell lines were prepared by differential centrifugation using previously described protocols. Briefly, cell homogenates were prepared by resuspending pelleted cells in PBS, followed by five rounds of freeze–thaw cycles prior to homogenization. Recombinant microsomes (rUGTs) were prepared by centrifuging the cell homogenate at a low speed (9000× g for 30 min) followed by ultracentrifugation (34,000× g for 60 min), with the total protein subsequently determined using a BCA assay. Recombinant microsomes (UGT1A9 and 2B7) and homogenates (UGT2B15) were used for inhibition studies.
as §1, §2, §3

[3] = cited from earlier work; remark: listed apart in the source
UGT2B15 = molecular target: T2, UGT2B15 (Homo sapiens, UniProt P54855); assay: Inhibition of S-oxazepam glucuronidation in rUGT2B15 homogenate/microsomes (UGT-overexpressing HEK293); assay type: biochemical; settings: for IC50: rUGT2B15
T2 construct: expressed in transfected cells; cell homogenate
T2 sequence (P54855 24-530): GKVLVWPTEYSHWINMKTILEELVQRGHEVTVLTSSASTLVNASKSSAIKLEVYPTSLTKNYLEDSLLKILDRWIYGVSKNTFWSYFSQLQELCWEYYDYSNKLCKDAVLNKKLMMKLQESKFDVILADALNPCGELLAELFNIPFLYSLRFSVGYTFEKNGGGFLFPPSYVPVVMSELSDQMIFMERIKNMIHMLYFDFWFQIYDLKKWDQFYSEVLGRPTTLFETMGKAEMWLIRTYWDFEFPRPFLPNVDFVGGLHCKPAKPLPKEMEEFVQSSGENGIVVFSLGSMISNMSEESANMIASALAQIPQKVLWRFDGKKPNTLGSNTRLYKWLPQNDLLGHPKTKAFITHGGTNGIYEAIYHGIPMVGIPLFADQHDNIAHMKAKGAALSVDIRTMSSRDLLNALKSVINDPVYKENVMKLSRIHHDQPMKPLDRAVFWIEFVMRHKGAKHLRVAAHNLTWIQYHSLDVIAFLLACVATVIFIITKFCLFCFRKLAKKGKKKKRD
Procedure: as §4, §1, §2, §3

[4] = read-out: IC50, R-Oxazepam Glucuronide
[5] = read-out: IC50, S-Oxazepam Glucuronide
[6] = read-out: IC50,u, R-Oxazepam Glucuronide, IC50 corrected with fu,inc
[7] = read-out: Ki, R-Oxazepam Glucuronide, generated from IC50 assuming competitive inhibition
[8] = read-out: Ki, S-Oxazepam Glucuronide, generated from IC50 assuming competitive inhibition
[9] = read-out: Ki,u, R-Oxazepam Glucuronide, Ki corrected with fu,inc
[10] = read-out: Ki,u, S-Oxazepam Glucuronide, Ki corrected with fu,inc
[11] = IC50 corrected with fu,inc, read-out: IC50,u, S-Oxazepam Glucuronide
[12] = rUGT2B7 microsomes, 100 µM cannabinoid
[13] = overexpressing HEK293 cell lines

11-hydroxy-Δ^9-tetrahydrocannabinol [11-OH-THC]
Cmax ([1]; THC dose 20 mg, oral): 0.015 µM
Cmax ([1]; THC dose 25 mg, inhalation): 0.012 µM
Cmax ([1]; THC dose 70 mg, inhalation): 0.032 µM
Cmax ([1]; THC dose 100 mg, inhalation): 0.046 µM
Cmax ([1]; THC dose 130 mg, oral): 0.1 µM
Cmax ([1]; THC dose 160 mg, oral): 0.12 µM
Cmax ([1]; after smoking): 0.09 µM
Cmax ([1]; oral ingestion of 50 mg THC): 0.16 µM
IC50 [2, 4]: 18 ± 5 µM
IC50 [2, 5]: 41 ± 25 µM
IC50 [2, 6]: 1.7 ± 0.47 µM
IC50 ([2]; read-out: IC50,u, S-Oxazepam Glucuronide, IC50 corrected with fu,inc): 3.9 ± 2.4 µM
Ki [2, 7]: 18 ± 4.9 µM
Ki [2, 8]: 34 ± 21 µM
Ki [2, 9]: 1.7 ± 0.46 µM
Ki [2, 10]: 3.2 ± 2 µM
IC50 (UGT2B7; IC50 corrected with fu,inc, read-out: IC50,u, R-Oxazepam Glucuronide): 0.77 ± 0.64 µM
IC50 (UGT2B7; [11]): 0.53 ± 0.26 µM
IC50 (UGT2B7; [4]): 9.9 ± 8.2 µM
IC50 (UGT2B7; [5]): 6.8 ± 3.3 µM
Inhibition of R-oxazepam glucuronidation (UGT2B7; [12]): 80%
Inhibition of S-oxazepam glucuronidation (UGT2B7; [12]): 81%
unbound fraction (fu,inc) ([3]; incubation mixtures with HKM): 0.094 ± 0.014
unbound fraction (fu,inc) ([3]; incubation mixtures with HLM): 0.094 ± 0.014
unbound fraction (fu,inc) [3, 13]: 0.078 ± 0.042
IC50 (UGT2B15; [11]): 4.5 ± 2.1 µM
IC50 (UGT2B15; [5]): 58 ± 27 µM

C=C(C)[C@@H]1CCC(C)=C[C@H]1c1c(O)cc(CCCCC)cc1O [CBD, cannabidiol]
Cmax ([1]; 1500 mg dose of CBD following a high-fat diet): 4.4 µM
Cmax ([1]; CBD 2 mg, inhalation): 0.0064 µM
Cmax ([1]; CBD 19 mg, inhalation): 0.35 µM
Cmax ([1]; CBD 70 mg, oral): 0.089 µM
Cmax ([1]; CBD 700 mg, oral): 0.89 µM
Cmax ([1]; CBD 2000 mg, oral): 2.5 µM
Ki [2, 7]: 16 ± 7.4 µM
Ki [2, 8]: 72 ± 32 µM
Ki [2, 9]: 0.82 ± 0.38 µM
Ki [2, 10]: 3.7 ± 1.6 µM
inhibition at 2 h, 100 µM (UGT2B7; 100 µM cannabinoid, read-out: Inhibition of R-oxazepam glucuronidation): 95%
inhibition at 2 h, 100 µM (UGT2B7; 100 µM cannabinoid, read-out: Inhibition of S-oxazepam glucuronidation): 89%
unbound fraction (fu,inc) ([3]; incubation mixtures with HKM): 0.062 ± 0.009
unbound fraction (fu,inc) ([3]; incubation mixtures with HLM): 0.051 ± 0.008
unbound fraction (fu,inc) [3, 13]: 0.038 ± 0.002
inhibition at 2 h, 10 µM (UGT2B15; human, pH 7.4, rUGT2B15 microsomes, 10 µM cannabinoid, range over the four cannabinoids, read-out: Inhibition of S-oxazepam glucuronide formation): 40 to 66%
inhibition at 2 h, 100 µM (UGT2B15; human, pH 7.4, rUGT2B15 microsomes, 100 µM cannabinoid, range over the four cannabinoids, read-out: Inhibition of S-oxazepam glucuronide formation): 83 to 91%
IC50 (UGT2B15; [11]): 2 ± 0.35 µM
IC50 (UGT2B15; [5]): 54 ± 9 µM

CCCCCc1cc(O)c2c(c1)OC(C)(C)[C@@H]1CCC(C)=C[C@@H]21 [THC, Δ^9-tetrahydrocannabinol]
Cmax ([1]; THC dose 20 mg, oral): 0.03 µM
Cmax ([1]; THC dose 25 mg, inhalation): 0.25 µM
Cmax ([1]; THC dose 70 mg, inhalation): 0.7 µM
Cmax ([1]; THC dose 100 mg, inhalation): 0.99 µM
Cmax ([1]; THC dose 130 mg, oral): 0.2 µM
Cmax ([1]; THC dose 160 mg, oral): 0.24 µM
Cmax ([1]; after smoking): 0.64 µM
Cmax ([1]; oral ingestion of 50 mg THC): 0.53 µM
Cmax ([1]; smoking cannabis cigarettes with 3.55% THC): 0.515 µM
IC50 [2, 4]: 34 ± 16 µM
IC50 [2, 5]: > 100 µM
IC50 [2, 6]: 1.6 ± 0.77 µM
Ki [2, 7]: 33 ± 15 µM
Ki [2, 8]: > 83 µM
Ki [2, 9]: 1.6 ± 0.74 µM
Ki [2, 10]: > 3.2 µM
Inhibition of R-oxazepam glucuronidation (UGT2B7; [12]): 50%
unbound fraction (fu,inc) ([3]; incubation mixtures with HKM): 0.052 ± 0.005
unbound fraction (fu,inc) ([3]; incubation mixtures with HLM): 0.048 ± 0.002
unbound fraction (fu,inc) [3, 13]: 0.042 ± 0.003
IC50 (UGT2B15; [11]): 0.84 ± 0.42 µM
IC50 (UGT2B15; [5]): 20 ± 10 µM
